Measurements published in PubChem BioAssay AID248 (DTP/NCI, 2004).
Where “and” joins values, the source holds several entries; their conditions need not be identical. Equal entries are not always repeated. Toxic doses and inconclusive results are not listed. Rule as the data show it: active = T/C of 150% or more; inactive = T/C below 125%.

Test system: L1210 leukemia ip in BDF1 mice, survival T/C
Assay: NCI In Vivo Anticancer Drug Screen. Data for tumor model L1210 Leukemia (intraperitoneal) in B6D2F1 (BDF1) mice
Conditions: endpoint: mean survival time, higher = longer survival
In short: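 Tumor was transplanted into mice, which were then dosed with test compound or vehicle alone. Survival was recorded for each group, and the treated figure was expressed relative to the control figure.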

[1] = dose: 100.0 mg/kg/injection, schedule: Q01DX009 (ip), vehicle: Klucel (hydroxypropylcellulose) (HPC)
[2] = dose: 200.0 mg/kg/injection, schedule: Q01DX009 (ip), vehicle: Klucel (hydroxypropylcellulose) (HPC)
[3] = dose: 400.0 mg/kg/injection, schedule: Q01DX009 (ip), vehicle: Klucel (hydroxypropylcellulose) (HPC)
[4] = dose: 50.0 mg/kg/injection, schedule: Q01DX001 (ip), vehicle: saline
[5] = dose: 100.0 mg/kg/injection, schedule: Q01DX001 (ip), vehicle: saline
[6] = dose: 200.0 mg/kg/injection, schedule: Q01DX001 (ip), vehicle: saline
[7] = dose: 400.0 mg/kg/injection, schedule: Q01DX001 (ip), vehicle: saline
[8] = dose: 75.0 mg/kg/injection, schedule: Q01DX001 (ip), vehicle: saline
[9] = dose: 150.0 mg/kg/injection, schedule: Q01DX001 (ip), vehicle: saline
[10] = dose: 100.0 mg/kg/injection, schedule: Q01DX009 (ip), vehicle: saline
[11] = dose: 100.0 mg/kg/injection, schedule: Q04DX003 (ip), vehicle: saline with Tween-80
[12] = dose: 200.0 mg/kg/injection, schedule: Q01DX009 (ip), vehicle: saline
[13] = dose: 200.0 mg/kg/injection, schedule: Q04DX003 (ip), vehicle: saline with Tween-80
[14] = dose: 100.0 mg/kg/injection, schedule: Q01DX009 (ip), vehicle: saline with Tween-80
[15] = dose: 200.0 mg/kg/injection, schedule: Q01DX009 (ip), vehicle: saline with Tween-80
[16] = dose: 400.0 mg/kg/injection, schedule: Q01DX009 (ip), vehicle: saline with Tween-80
[17] = dose: 400.0 mg/kg/injection, schedule: Q04DX002 (ip), vehicle: saline with Tween-80
[18] = dose: 400.0 mg/kg/injection, schedule: Q04DX003 (ip), vehicle: saline with Tween-80
[19] = dose: 100.0 mg/kg/injection, schedule: Q04DX003 (ip), vehicle: Klucel (hydroxypropylcellulose) (HPC)
[20] = dose: 200.0 mg/kg/injection, schedule: Q04DX003 (ip), vehicle: Klucel (hydroxypropylcellulose) (HPC)
[21] = dose: 400.0 mg/kg/injection, schedule: Q04DX003 (ip), vehicle: Klucel (hydroxypropylcellulose) (HPC)
[22] = dose: 100.0 mg/kg/injection, schedule: Q04DX003 (ip), vehicle: saline
[23] = dose: 200.0 mg/kg/injection, schedule: Q04DX003 (ip), vehicle: saline
[24] = dose: 400.0 mg/kg/injection, schedule: Q04DX003 (ip), vehicle: saline

Measured: T/C

O=C(Nc1cccc(Cl)c1Cl)N(CCO)C1CCCCC1
inactive: [1] 107 % of control | [2] 96 % of control | [3] 94 % of control

Cc1nc2ccccc2cc1CCl
inactive: dose: 75.0 mg/kg/injection, schedule: Q01DX001 (ip), vehicle: acetone 88 % of control | dose: 150.0 mg/kg/injection, schedule: Q01DX001 (ip), vehicle: acetone 88 % of control

NC(=O)c1cn[nH]c1NC(=O)/C=C/c1cccc([N+](=O)[O-])c1
inactive: dose: 50.0 mg/kg/injection, schedule: Q01DX001 (ip), vehicle: Klucel (hydroxypropylcellulose) (HPC) 92 % of control | dose: 100.0 mg/kg/injection, schedule: Q01DX001 (ip), vehicle: Klucel (hydroxypropylcellulose) (HPC) 96 % of control | dose: 200.0 mg/kg/injection, schedule: Q01DX001 (ip), vehicle: Klucel (hydroxypropylcellulose) (HPC) 91 % of control

COc1ccc2c(c1)C(CC(=O)O)=CC2
inactive: [4] 100 % of control | [5] 96 % of control | [6] 105 % of control | [7] 107 % of control

CCOc1ccc2c(ccc(/C=C\c3ccc(O)c4ccccc34)[n+]2C)c1
inactive: dose: 15.0 mg/kg/injection, schedule: Q01DX001 (ip), vehicle: saline 96 % of control | dose: 30.0 mg/kg/injection, schedule: Q01DX001 (ip), vehicle: saline 96 % of control | dose: 60.0 mg/kg/injection, schedule: Q01DX001 (ip), vehicle: saline 97 % of control | [8] 106 % of control | [9] 101 % of control

NCc1cc([N+](=O)[O-])ccc1Cl
inactive: dose: 50.0 mg/kg/injection, schedule: Q01DX009 (ip), vehicle: saline 101 % of control | [10] 95 % of control | [11] 92 % of control | [12] 97 % of control | [13] 103 % of control

COC(=O)CCNc1c(OC)ccc2ccccc12
inactive: [1] 101 % of control | [3] 98 % of control

C/C(=C\C(C)(C)c1ccccc1)c1ccccc1 (tested in a mixture with another compound)
inactive: [4] 90 % of control | [5] 96 % of control | [6] 113 % of control | [7] 116 % of control

Cc1ccc(NC(=O)Nc2cccc(C(F)(F)F)c2)cc1C
inactive: [1] 98 % of control | [2] 98 % of control | [3] 91 % of control

CCCCc1ccccn1
inactive: [5] 96 % of control

CC(=O)Oc1cccc(OC(=O)Nc2cccc(Cl)c2C)c1
inactive: dose: 100.0 mg/kg/injection, schedule: Q01DX001 (ip), vehicle: saline with Tween-80 93 % of control | [14] 104 % of control and 107 % of control | dose: 100.0 mg/kg/injection, schedule: Q04DX002 (ip), vehicle: saline with Tween-80 94 % of control and 104 % of control | [11] 88 % of control | dose: 200.0 mg/kg/injection, schedule: Q01DX001 (ip), vehicle: saline with Tween-80 100 % of control | [15] 96 % of control and 90 % of control | dose: 200.0 mg/kg/injection, schedule: Q04DX002 (ip), vehicle: saline with Tween-80 94 % of control and 101 % of control | [13] 86 % of control | dose: 400.0 mg/kg/injection, schedule: Q01DX001 (ip), vehicle: saline with Tween-80 93 % of control | [16] 93 % of control and 100 % of control | [17] 97 % of control and 104 % of control | [18] 89 % of control

CCOc1ccn(C2CCOC2=O)c(=O)n1 (stereo unspecified)
inactive: [10] 100 % of control | dose: 100.0 mg/kg/injection, schedule: Q04DX003 (ip), vehicle: alcohol 104 % of control | [12] 97 % of control | dose: 200.0 mg/kg/injection, schedule: Q04DX003 (ip), vehicle: alcohol 102 % of control | dose: 400.0 mg/kg/injection, schedule: Q01DX009 (ip), vehicle: saline 100 % of control | dose: 400.0 mg/kg/injection, schedule: Q04DX003 (ip), vehicle: alcohol 102 % of control

COc1cc(N(CCCl)CCCl)ccc1C1N(Cc2ccc(N(C)C)cc2)CCCN1Cc1ccc(N(C)C)cc1
inactive: [19] 100 % of control | [20] 107 % of control | [21] 104 % of control

O=C(OCCCCCCCOC(=O)c1ccc([N+](=O)[O-])cc1)c1ccc([N+](=O)[O-])cc1
inactive: dose: 100.0 mg/kg/injection, schedule: Q01DX001 (ip), vehicle: other 101 % of control | dose: 200.0 mg/kg/injection, schedule: Q01DX001 (ip), vehicle: other 96 % of control | dose: 400.0 mg/kg/injection, schedule: Q01DX001 (ip), vehicle: other 95 % of control

CC1(C)CC(=O)CC(C)(CN)C1 (stereo unspecified)
inactive: [19] 100 % of control | [20] 104 % of control | [21] 100 % of control

O=C(c1cccnc1)n1cc2c(n1)C1=C(CCCC1)CC2
inactive: [19] 90 % of control | [20] 89 % of control | [21] 86 % of control

Nc1ncnc2nn(C3OC(CO)C(O)C3O)nc12 (stereo unspecified)
inactive: [8] 105 % of control | [9] 105 % of control | dose: 300.0 mg/kg/injection, schedule: Q01DX001 (ip), vehicle: saline 108 % of control

C=CCN(CC=C)c1nc(OC)nc(OC)n1
inactive: dose: 25.0 mg/kg/injection, schedule: Q01DX009 (ip), vehicle: saline with Tween-80 92 % of control | dose: 25.6 mg/kg/injection, schedule: Q04DX002 (ip), vehicle: saline with Tween-80 97 % of control | dose: 50.0 mg/kg/injection, schedule: Q01DX009 (ip), vehicle: saline with Tween-80 94 % of control | dose: 50.0 mg/kg/injection, schedule: Q04DX003 (ip), vehicle: saline with Tween-80 95 % of control | dose: 64.0 mg/kg/injection, schedule: Q04DX002 (ip), vehicle: saline with Tween-80 101 % of control | [14] 94 % of control | [11] 95 % of control and 103 % of control | dose: 160.0 mg/kg/injection, schedule: Q04DX002 (ip), vehicle: saline with Tween-80 101 % of control | [13] 92 % of control | [17] 101 % of control

CC1=CC(C)(C(Cl)(Cl)Cl)C(C)=C/C1=N/O (stereo unspecified)
inactive: [1] 99 % of control | [2] 89 % of control

COc1ccc(N=Cc2c(O)ccc3ccccc23)cc1
inactive: [19] 107 % of control | [20] 98 % of control | [21] 102 % of control

COC1OC2COc3ccccc3OC2C(NC(N)=O)C1O (stereo unspecified)
inactive: [14] 97 % of control | [15] 100 % of control | [16] 91 % of control

CCOCCOCCOCCCNCC(=O)N1CCN(C(=O)CNCCCOCCOCCOCC)CC1
inactive: dose: 50.0 mg/kg/injection, schedule: Q01DX001 (ip), vehicle: carboxymethylcellulose (CMC) 92 % of control | dose: 100.0 mg/kg/injection, schedule: Q01DX001 (ip), vehicle: carboxymethylcellulose (CMC) 101 % of control | dose: 200.0 mg/kg/injection, schedule: Q01DX001 (ip), vehicle: carboxymethylcellulose (CMC) 103 % of control | dose: 400.0 mg/kg/injection, schedule: Q01DX001 (ip), vehicle: carboxymethylcellulose (CMC) 92 % of control

CCCCN1C(=O)C2CCc3ccncc3C2C1=O (stereo unspecified)
inactive: [22] 103 % of control | [23] 97 % of control | [24] 103 % of control

CC(C)NC(=O)c1ccc(CNN(C)C)cc1
inactive: dose: 25.0 mg/kg/injection, schedule: Q04DX003 (ip), vehicle: saline 114 % of control | dose: 50.0 mg/kg/injection, schedule: Q04DX003 (ip), vehicle: saline 104 % of control | [22] 112 % of control | [23] 104 % of control | [24] 111 % of control

O=[N+]([O-])c1ccc(N=Nc2ccc(O)cc2)cc1
inactive: dose: 55.0 mg/kg/injection, schedule: Q01DX Z (ip), vehicle: methylcellulose (MC) 103 % of control | dose: 83.0 mg/kg/injection, schedule: Q01DX Z (ip), vehicle: methylcellulose (MC) 117 % of control | [11] 98 % of control | dose: 125.0 mg/kg/injection, schedule: Q01DX Z (ip), vehicle: methylcellulose (MC) 103 % of control | [13] 91 % of control | [18] 98 % of control
